target: T1, Dipeptidyl peptidase 3 (Homo sapiens, UniProt Q9NY33); assay: Enzyme Inhibition Assay; conditions: pH 7.4; 25 °C
T1 sequence (Q9NY33 whole entry): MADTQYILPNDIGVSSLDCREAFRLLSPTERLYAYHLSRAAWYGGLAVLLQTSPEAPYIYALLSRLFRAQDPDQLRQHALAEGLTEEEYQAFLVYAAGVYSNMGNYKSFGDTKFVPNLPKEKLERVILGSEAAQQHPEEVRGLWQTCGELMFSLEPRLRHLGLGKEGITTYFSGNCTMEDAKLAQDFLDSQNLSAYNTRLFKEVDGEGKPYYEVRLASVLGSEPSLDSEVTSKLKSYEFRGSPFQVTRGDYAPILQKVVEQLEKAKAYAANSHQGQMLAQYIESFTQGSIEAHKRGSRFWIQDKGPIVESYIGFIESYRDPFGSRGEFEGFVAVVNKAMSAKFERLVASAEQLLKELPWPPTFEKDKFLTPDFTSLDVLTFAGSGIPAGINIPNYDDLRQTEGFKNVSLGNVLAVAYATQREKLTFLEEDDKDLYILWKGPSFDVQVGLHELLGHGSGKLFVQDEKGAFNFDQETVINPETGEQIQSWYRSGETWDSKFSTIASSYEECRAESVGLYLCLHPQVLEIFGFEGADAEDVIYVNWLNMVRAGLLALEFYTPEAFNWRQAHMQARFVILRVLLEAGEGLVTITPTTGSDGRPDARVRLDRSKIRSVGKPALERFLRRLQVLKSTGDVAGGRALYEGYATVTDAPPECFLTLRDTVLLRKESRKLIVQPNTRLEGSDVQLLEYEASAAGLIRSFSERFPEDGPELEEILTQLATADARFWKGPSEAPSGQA

For `c1ccc(C2C(c3nc4ccc(C5=NCCN5)cc4[nH]3)C(c3ccccc3)C2c2nc3ccc(C4=NCCN4)cc3[nH]2)cc1` (stereo not drawn) [2,4-Disubstituted-1,3-di-(5-amidino-2-benzoimidazolyl)-cyclobutane hydrochoride, 1'], the Kd was 0.2 µM.

target: T1, Dipeptidyl peptidase 3; assay: Enzyme Inhibition Assay; conditions: pH 7.4; 25 °C; remark: another data set of the same source
Text: The IC50 value is defined as the concentration of an inhibitor with caused 50% reduction of the enzyme activity under specific condition. The principle of these assay with synthetic 2-naphthylamide substrates is based on the absorbance at 530nm of a chromophoric complex formed by the reaction product 2-naphthylamine with Fast Blue B salt.

`N=C(N)c1ccc2nc(C3C(c4ccccc4Cl)C(c4nc5ccc(C(=N)N)cc5[nH]4)C3c3ccccc3Cl)[nH]c2c1` (stereo not drawn) [2,4-Disubstituted-1,3-di-(5-amidino-2-benzoimidazolyl)-cyclobutane hydrochoride, 5'] and `CC(C)N=C(N)c1ccc2nc(C3C(c4ccccc4Cl)C(c4nc5ccc(C(=N)NC(C)C)cc5[nH]4)C3c3ccccc3Cl)[nH]c2c1` (stereo not drawn) [2,4-Disubstituted-1,3-di-(5-amidino-2-benzoimidazolyl)-cyclobutane hydrochoride, 6'] are within 1.5-fold of each other in IC50: 7 µM for the first, 6 µM for the second.

Compared with `c1ncc(-c2nc3cc(C4=NCCN4)ccc3[nH]2)[nH]1` [Benzimidazole derivative, 2], `C(=Cc1nc2ccc(C3=NCCN3)cc2[nH]1)c1ccccc1` [Benzimidazole derivative, 3] is 1.8-fold lower in IC50: 18 µM for the first, 10 µM for the second.

`c1ccc(C2C(c3nc4ccc(C5=NCCN5)cc4[nH]3)C(c3ccccc3)C2c2nc3ccc(C4=NCCN4)cc3[nH]2)cc1` (stereo not drawn) [2,4-Disubstituted-1,3-di-(5-amidino-2-benzoimidazolyl)-cyclobutane hydrochoride, 1'] and `Clc1ccccc1C1C(c2nc3ccc(C4=NCCN4)cc3[nH]2)C(c2ccccc2Cl)C1c1nc2ccc(C3=NCCN3)cc2[nH]1` (stereo not drawn) [2,4-Disubstituted-1,3-di-(5-amidino-2-benzoimidazolyl)-cyclobutane hydrochoride, 4'] cannot be ordered by IC50: 2.8 µM for the first, over 1.7 µM for the second.

Going from `C(=C\c1nc2ccccc2[nH]1)/c1ccccc1` [Benzimidazole derivative, 4] to `N=C(N)c1ccc2nc(C3C(c4ccccc4)C(c4nc5ccc(C(=N)N)cc5[nH]4)C3c3ccccc3)[nH]c2c1` (stereo not drawn) [2,4-Disubstituted-1,3-di-(5-amidino-2-benzoimidazolyl)-cyclobutane hydrochoride, 2'], the IC50 falls from over 100 µM to 5.6 µM. The second is the more potent here.

`N=C(N)c1ccc2[nH]c(-c3c[nH]cn3)nc2c1` [Benzimidazole derivative, 1] and `CC(C)N=C(N)c1ccc2nc(C3C(c4ccccc4)C(c4nc5ccc(C(=N)NC(C)C)cc5[nH]4)C3c3ccccc3)[nH]c2c1` (stereo not drawn) [2,4-Disubstituted-1,3-di-(5-amidino-2-benzoimidazolyl)-cyclobutane hydrochoride, 3'] cannot be ordered by IC50: 53 µM for the first, over 10 µM for the second.

`c1csc(C2C(c3nc4ccc(C5=NCCN5)cc4[nH]3)C(c3cccs3)C2c2nc3ccc(C4=NCCN4)cc3[nH]2)c1` (stereo not drawn) [2,4-Disubstituted-1,3-di-(5-amidino-2-benzoimidazolyl)-cyclobutane hydrochoride, 8'] and `c1coc(C2C(c3nc4ccc(C5=NCCN5)cc4[nH]3)C(c3ccco3)C2c2nc3ccc(C4=NCCN4)cc3[nH]2)c1` (stereo not drawn) [2,4-Disubstituted-1,3-di-(5-amidino-2-benzoimidazolyl)-cyclobutane hydrochoride, 7'] are within 1.5-fold of each other in IC50: 10 µM for the first, 8 µM for the second.

— BindingDB's records for doi:10.1016/j.bioorg.2006.11.002 (The Josip Juraj Strossmayer University, 2007)
